Measured values published in US8389513B2, “2-amino-5,5-difluoro-5,6-dihydro-4H-[1,3]oxazin-4-yl)-phenyl]-amides” (Hoffmann-La Roche Inc., priority 2009, dated 2013).

What was measured:
[1] = biological target: T1, BACE2 (Rattus norvegicus, UniProt Q6IE75); assay: Assay for BACE inhibition by measuring cellular TMEM27 cleavage; assay type: cell-based; conditions: INS-TMEM27 cells (INS1e-derived); shed TMEM27 by ELISA; read-out: BACE2 cell act. IC50
T1 construct: endogenous cellular BACE2 in the Ins1e rat cell line; endogenous in cells; host or cells: INS-TMEM27 (INS1e-derived rat cell line with TetOn-inducible full-length hTMEM27)
T1 sequence (Q6IE75 63-514): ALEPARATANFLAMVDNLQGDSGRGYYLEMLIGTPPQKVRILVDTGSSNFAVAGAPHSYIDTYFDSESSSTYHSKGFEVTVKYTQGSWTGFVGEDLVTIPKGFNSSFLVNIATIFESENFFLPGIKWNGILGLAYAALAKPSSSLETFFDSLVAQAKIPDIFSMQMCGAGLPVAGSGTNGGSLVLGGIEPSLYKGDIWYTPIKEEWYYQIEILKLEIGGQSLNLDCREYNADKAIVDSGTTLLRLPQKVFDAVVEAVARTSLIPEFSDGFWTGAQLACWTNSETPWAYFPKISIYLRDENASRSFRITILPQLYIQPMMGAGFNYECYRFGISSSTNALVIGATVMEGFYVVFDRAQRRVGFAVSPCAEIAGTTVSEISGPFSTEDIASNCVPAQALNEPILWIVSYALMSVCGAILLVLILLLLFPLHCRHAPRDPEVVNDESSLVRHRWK
Procedure, shortened: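 Ins1e-derived INS-TMEM27 rat cells with doxycycline-inducible full-length human TMEM27; inhibitor added 2 h before doxycycline (500 ng/ml final), then 46 h at 37 °C. Shed TMEM27 in supernatant quantified by sandwich ELISA with anti-human-TMEM27 antibodies; EC50 from curve fit across inhibitor concentrations.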

[2] = biological target: T2, cathepsin D (from human liver) (Homo sapiens, UniProt P07339); assay: Cathepsin D fluorescent substrate kinetic assay; assay type: biochemical; conditions: pH 5.5
T2 construct: cathepsin D (from human liver, Calbiochem); purchased Calbiochem; host or cells: human liver
T2 sequence (P07339 65-412): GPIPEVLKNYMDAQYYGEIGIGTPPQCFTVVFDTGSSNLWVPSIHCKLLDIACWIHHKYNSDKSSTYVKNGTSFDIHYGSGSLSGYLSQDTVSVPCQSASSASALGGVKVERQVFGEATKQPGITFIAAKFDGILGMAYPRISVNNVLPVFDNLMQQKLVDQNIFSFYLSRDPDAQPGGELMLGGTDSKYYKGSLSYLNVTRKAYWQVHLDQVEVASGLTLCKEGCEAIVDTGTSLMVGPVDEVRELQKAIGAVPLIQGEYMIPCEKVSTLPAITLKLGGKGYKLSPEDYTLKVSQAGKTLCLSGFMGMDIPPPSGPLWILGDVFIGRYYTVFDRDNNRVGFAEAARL
Source text: Cathepsin D and Cathepsin E Fluorescent Substrate Kinetic Assays
The MR121 fluorescence assays described below are based on the fact that MR121 forms a non-fluorescent ground state complex with tryptophan. In solution this formation occurs at millimolar concentrations of tryptophan. The mechanism can be used to design a generic biochemical assay for proteases. A substrate peptide is labeled at the N-terminus with tryptophan and at the C-terminus with the fluorophore MR121 (for cathepsin D the 10 amino acid peptide […]-MR121 was used; for cathepsin E, MR121-[…] was used). In absence of protease activity, the substrates remain intact and the MR121 fluorescence is reduced by the high local Trp-concentration. If the substrates are cleaved by the enzymes the MR121 fluorescence is recovered.
The fluorescent substrate cathepsin D and cathepsin E kinetic assays were performed at room temperature in 384-well microtiter plates (black with clear flat bottom, non binding surface plates from Corning) in a final volume of 51 μl. The test compounds were serially diluted in DMSO (15 concentrations, 1/3 dilution steps) and 1 μl of diluted compounds were mixed for 10 min with 40 μl of cathepsin D (from human liver, Calbiochem) diluted in assay buffer (100 mM sodium acetate, 0.05% BSA, pH 5.5; final concentration: 200 nM) or with 40 μl of recombinant human cathepsin E (R&D Systems) diluted in assay buffer (100 mM sodium acetate, 0.05% BSA, pH 4.5; final concentration: 0.01 nM). After addition of 10 μl of the cathepsin D substrate […]-MR121 diluted in cathepsin D assay buffer (final concentration: 300 nM) or 10 µl of the cathepsin E substrate MR121-[…] diluted in cathepsin E assay buffer (final concentration: 300 nM), the plates were strongly shaken for 2 minutes. The enzymatic reaction was followed in a plate: vision reader (Perkin Elmer) (excitation wavelength: 630 nm; emission: 695 nm) for at least 30 minutes in a kinetic measurement detecting an increase of MR121 fluorescence during the reaction time. The slope in the linear range of the kinetic was calculated and the IC50 of the test compounds were determined using a four parameter equation for curve fitting.

[3] = biological target: T3, CYP3A4 (Homo sapiens, UniProt P08684); assay: CYP inhibition assay, CYP3A4; assay type: in vitro ADME; conditions: human liver microsomes, midazolam; read-out: CYP IC50 3A4
T3 construct: 0.2 mg/ml pooled human liver microsomes; from tissue; host or cells: pooled human liver microsomes
T3 sequence (P08684 whole entry): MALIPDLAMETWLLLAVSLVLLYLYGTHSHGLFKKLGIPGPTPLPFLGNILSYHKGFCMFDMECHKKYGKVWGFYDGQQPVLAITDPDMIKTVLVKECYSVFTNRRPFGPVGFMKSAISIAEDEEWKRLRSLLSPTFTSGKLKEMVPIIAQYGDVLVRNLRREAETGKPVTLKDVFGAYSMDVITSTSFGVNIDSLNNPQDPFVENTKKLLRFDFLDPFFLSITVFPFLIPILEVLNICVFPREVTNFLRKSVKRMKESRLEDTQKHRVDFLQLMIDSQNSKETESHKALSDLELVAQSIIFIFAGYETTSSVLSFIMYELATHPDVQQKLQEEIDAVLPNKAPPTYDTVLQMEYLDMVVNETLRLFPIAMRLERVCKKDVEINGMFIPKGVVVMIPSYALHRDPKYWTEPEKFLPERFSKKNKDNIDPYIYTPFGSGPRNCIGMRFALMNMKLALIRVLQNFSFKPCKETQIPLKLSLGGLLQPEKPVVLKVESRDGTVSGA
Method: (§1) Inhibition of cytochromes P450 (CYPs) 2C9, 2D6 and 3A4 was assessed using human liver microsomes and CYP-selective substrate metabolism reactions. 50 μl incubations were made up containing (finally) 0.2 mg/ml pooled human liver microsomes, 5 μM substrate (diclofenac for CYP2C9 [4′ hydroxylase], dextromethorphan for CYP2D6 [O-demethylase] or midazolam for CYP3A4 [1′ hydroxylase]), 0.25 μL DMSO containing test inhibitor and NADPH regenerating system. […] Incubations were prewarmed to 37° C. for 10 minutes before initiation by addition of NADPH regenerating system. Incubations were quenched after 5 minutes (20 minutes for dextromethorphan) by addition of 50 μl cold acetonitrile containing 20 ng/ml 4-OH-diclofenac-13C6, 20 ng/mL dextrorphan-D3 and 20 ng/mL 1-OH-midazolam-D4. Quenched incubates were stored at −20° C. for at least 1 hour before centrifugation (20,000×g, 20 minutes). Supernatants were removed and diluted 1:1 with water prior to analysis using a RapidFire sample injector system and API4000 mass spectrometer. Peak areas for substrate, metabolite and stable-labelled metabolite standard were determined using MS/MS. The peak area ratios between the metabolite generated by the enzymatic reaction and the internal standard were used in subsequent calculations. The percentage of (DMSO) control activity was calculated for each incubate and IC50 values estimated by non-linear regression. Sulfaphenazole, quinidine or ketoconazole were tested in each CYP2C9, CYP2D6 or CYP3A4 inhibition experiment, respectively, to ensure assay sensitivity and reproducibility.

[4] = biological target: T4, CYP2C9 (Homo sapiens, UniProt P11712); assay: CYP inhibition assay, CYP2C9; assay type: in vitro ADME; conditions: human liver microsomes, diclofenac; read-out: CYP IC50 2C9
T4 construct: 0.2 mg/ml pooled human liver microsomes; from tissue; host or cells: pooled human liver microsomes
T4 sequence (P11712 whole entry): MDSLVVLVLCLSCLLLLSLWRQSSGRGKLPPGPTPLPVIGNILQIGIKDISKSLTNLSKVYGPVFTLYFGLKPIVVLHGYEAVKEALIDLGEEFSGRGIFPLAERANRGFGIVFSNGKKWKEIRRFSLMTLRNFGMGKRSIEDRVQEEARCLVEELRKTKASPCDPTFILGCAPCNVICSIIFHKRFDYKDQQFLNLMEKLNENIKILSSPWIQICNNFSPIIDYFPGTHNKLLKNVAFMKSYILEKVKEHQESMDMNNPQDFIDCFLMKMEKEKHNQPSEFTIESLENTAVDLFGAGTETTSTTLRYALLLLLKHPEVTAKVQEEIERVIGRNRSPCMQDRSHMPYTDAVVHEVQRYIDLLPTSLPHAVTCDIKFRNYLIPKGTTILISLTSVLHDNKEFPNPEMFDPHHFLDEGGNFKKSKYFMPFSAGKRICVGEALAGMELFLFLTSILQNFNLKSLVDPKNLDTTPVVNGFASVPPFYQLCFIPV
Method: as §1

Row | Compound | IC50 [1] [µM] | IC50 [2] [µM] | IC50 [3] [µM] | IC50 [4] [µM]
1 | C[C@]1(c2cc(NC(=O)c3ncc(C(F)(F)F)cc3Cl)ccc2F)N=C(N)OCC1(F)F [Example 5, 3-Chloro-5-trifluoromethyl-pyridine-2-carboxylic acid [3-((R)-2-amino-5,5-difluoro-4-methyl-5,6-dihydro-4H-[1,3]oxazin-4-yl)-4-fluoro-phenyl]-amide] | 0.015 | > 200 | > 10 | –
2 | C[C@]1(c2cc(NC(=O)c3ncc(C#N)cc3Cl)ccc2F)N=C(N)OCC1(F)F [Example 39, 3-Chloro-5-cyano-pyridine-2-carboxylic acid [3-((R)-2-amino-5,5-difluoro-4-methyl-5,6-dihydro-4H-[1,3]oxazin-4-yl)-4-fluoro-phenyl]-amide] | 0.224 | > 200 | 1 to 10 | > 10
3 | CC1(C)OC(N)=N[C@](C)(c2cc(NC(=O)c3ncc(C(F)(F)F)cc3Cl)ccc2F)C1(F)F [Example 20, 3-Chloro-5-trifluoromethyl-pyridine-2-carboxylic acid [3-((R)-2-amino-5,5-difluoro-4,6,6-trimethyl-5,6-dihydro-4H-[1,3]oxazin-4-yl)-4-fluoro-phenyl]-amide] | 1.27 | > 200 | > 10 | 1 to 10
4 | C[C@]1(c2cc(NC(=O)c3ccc(Cl)cn3)ccc2F)N=C(N)OCC1(F)F [Example 1, 5-Chloro-pyridine-2-carboxylic acid [3-((R)-2-amino-5,5-difluoro-4-methyl-5,6-dihydro-4H-[1,3]oxazin-4-yl)-4-fluoro-phenyl]-amide] | 0.035 | > 200 | > 10 | > 10
5 | CC1(C)OC(N)=N[C@](C)(c2cc(NC(=O)c3ccc(C#N)cn3)ccc2F)C1(F)F [Example 21, 5-Cyano-pyridine-2-carboxylic acid [3-((R)-2-amino-5,5-difluoro-4,6,6-trimethyl-5,6-dihydro-4H-[1,3]oxazin-4-yl)-4-fluoro-phenyl]-amide] | 0.21 | > 200 | > 10 | > 10
6 | C[C@]1(c2cc(NC(=O)c3ncc(Cl)cc3Cl)ccc2F)N=C(N)OCC1(F)F [Example 8, 3,5-Dichloro-pyridine-2-carboxylic acid [3-((R)-2-amino-5,5-difluoro-4-methyl-5,6-dihydro-4H-[1,3]oxazin-4-yl)-4-fluoro-phenyl]-amide] | 0.071 | > 170 | > 10 | > 10
7 | CC1(C)OC(N)=N[C@](C)(c2cc(NC(=O)c3ncc(C#N)cc3Cl)ccc2F)C1(F)F [Example 22, 3-Chloro-5-cyano-pyridine-2-carboxylic acid [3-((R)-2-amino-5,5-difluoro-4,6,6-trimethyl-5,6-dihydro-4H-[1,3]oxazin-4-yl)-4-fluoro-phenyl]-amide] | 0.175 | > 200 | 1 to 10 | > 10
